In ChEMBL document CHEMBL1157637, “Potent DNA-directed alkylating agents: Synthesis and biological activity of phenyl N-mustard-quinoline conjugates having a urea or hydrazinecarboxamide linker” (Bioorg Med Chem, 2010):
The source made the active and inactive calls. The calls are words filed in the database; no cut-off is given here.

Columns and labels:
NCI/ADR-RES = assay: Antitumor activity against human MCF7/ADR cells xenografted in nu/nu nude mouse at 100 mg/kg, iv administered as injection in Q2D x 6 schedule; type: functional, organism-based; parameters: dose 100 mg/kg
CCRF-CEM [1] = assay: Cytotoxicity against human CCRF-CEM cells after 72 hrs by XTT assay; type: functional, cell-based
CCRF-CEM [2] = assay: Cytotoxicity against taxol-resistant human CCRF-CEM cells after 72 hrs by XTT assay; type: functional, cell-based
CCRF-CEM [3] = assay: Cytotoxicity against vinblastine-resistant human CCRF-CEM cells after 72 hrs by XTT assay; type: functional, cell-based
CCRF-CEM [4] = assay: Selectivity ratio of IC50 for taxol-resistant human CCRF-CEM cells to IC50 for human CCRF-CEM cells; type: functional
CCRF-CEM [5] = assay: Selectivity ratio of IC50 for vinblastine-resistant human CCRF-CEM cells to IC50 for human CCRF-CEM cells; type: functional
MX1 [6] = assay: Cytotoxicity against human MX1 cells after 72 hrs by SRB assay; type: functional, cell-based; conditions: MX1, 72 h
HCT-116 = assay: Cytotoxicity against human HCT116 cells after 72 hrs by SRB assay; type: functional, cell-based; conditions: HCT-116, 72 h
[7] = Cytotoxicity against human H1299 cells after 72 hrs by alamar blue assay; type: functional, cell-based; conditions: NCI-H1299, 72 h
[8] = Cytotoxicity against human CL1-5 cells after 72 hrs by alamar blue assay; type: functional, cell-based; conditions: CL1-5, 72 h
[9] = Cytotoxicity against human CL1-0 cells after 72 hrs by alamar blue assay; type: functional, cell-based; conditions: CL1-0, 72 h
PC-3 = assay: Cytotoxicity against human PC3 cells after 72 hrs by alamar blue assay; type: functional, cell-based; conditions: PC-3, 72 h
MCF7 = assay: Cytotoxicity against human MCF7 cells after 72 hrs by alamar blue assay; type: functional, cell-based; conditions: MCF7, 72 h
MX1 [10] = assay: Antitumor activity against human MX1 cells xenografted in nu/nu nude mouse assessed as complete tumor remission at 150 mg/kg, iv administered as injection in Q2D x 5 schedule measured on day 16; type: functional, organism-based; parameters: dose 150 mg/kg
MX1 [11] = assay: Antitumor activity against human MX1 cells xenografted in nu/nu nude mouse assessed as complete tumor remission at 150 mg/kg, iv administered as injection in Q2D x 5 schedule measured on day 70; type: functional, organism-based; parameters: dose 150 mg/kg
Mus musculus [12] = assay: Toxicity in nu/nu nude mouse assessed as body weight loss at 150 mg/kg, iv administered as injection in Q2D x 5 schedule measured on day 16; type: organism-based; parameters: dose 150 mg/kg, route intravenous; conditions: in vivo
Mus musculus [13] = assay: Toxicity in nu/nu nude mouse assessed as body weight loss at 150 mg/kg, iv administered as injection in Q2D x 5 schedule measured on day 18; type: organism-based; parameters: dose 150 mg/kg, route intravenous; conditions: in vivo
Mus musculus [14] = assay: Toxicity in nu/nu nude mouse assessed as body weight loss at 100 mg/kg, iv administered as injection in Q2D x 6 schedule; type: organism-based; parameters: dose 100 mg/kg, route intravenous; conditions: in vivo
[15] = Metabolic stability in rat plasma assessed as half life; type: ADME, cell-free
Nucleic Acid [16] = assay: Binding affinity to pEGFP-N1 DNA assessed as formation of interstrand cross-links with DNA by alkaline gel shift assay; type: nucleic-acid assay
Nucleic Acid [17] = assay: Binding affinity to DNA in human H1299 cells assessed as formation of DNA cross-links after irradiation by modified single cell gel electrophoresis comet assay; type: cell-based
Nucleic Acid [18] = assay: Binding affinity to DNA in human H1299 cells assessed as formation of DNA cross-links at 10 uM followed by irradiation by modified single cell gel electrophoresis comet assay; type: cell-based

SMILES: Cc1cc(NC(=O)Nc2ccc(N(CCCl)CCCl)cc2)c2ccccc2n1
- Activity (NCI/ADR-RES): Active
- IC50 (CCRF-CEM [1]): 193 nM
- IC50 (CCRF-CEM [2]): 429 nM
- IC50 (CCRF-CEM [3]): 664 nM
- Ratio IC50 (CCRF-CEM [4]): 2.2
- Ratio IC50 (CCRF-CEM [5]): 3.4
- IC50 (MX1 [6]): 343 nM
- IC50 (HCT-116): 1420 nM
- IC50 [7]: 1980 nM
- IC50 [8]: 9450 nM
- IC50 [9]: 9020 nM
- IC50 (PC-3): 9520 nM
- IC50 (MCF7): 9080 nM
- Activity (MX1 [10]): Active
- Activity (MX1 [11]): Active
- Activity (Mus musculus [12]): 2%
- Activity (Mus musculus [13]): Non-toxic
- Activity (Mus musculus [14]): Non-toxic
- half-life [15]: 16.5 h
- Activity (Nucleic Acid [16]): Active
- Activity (Nucleic Acid [17]): Dose-dependent effect
- Activity (Nucleic Acid [18]): 31.3%
